According to paper PMC4980083 (JCI insight, 2016):

Tests used:
[1] = biological target: T1, full-length AR and AR-V567es (Homo sapiens, UniProt P10275); assay: Probasin luciferase activity in LNCaP cells, full-length AR and AR-V567es; details: I-EPI-002 2 μM, enzalutamide 5 μM; presence or absence of androgen
T1 sequence (P10275 1-920): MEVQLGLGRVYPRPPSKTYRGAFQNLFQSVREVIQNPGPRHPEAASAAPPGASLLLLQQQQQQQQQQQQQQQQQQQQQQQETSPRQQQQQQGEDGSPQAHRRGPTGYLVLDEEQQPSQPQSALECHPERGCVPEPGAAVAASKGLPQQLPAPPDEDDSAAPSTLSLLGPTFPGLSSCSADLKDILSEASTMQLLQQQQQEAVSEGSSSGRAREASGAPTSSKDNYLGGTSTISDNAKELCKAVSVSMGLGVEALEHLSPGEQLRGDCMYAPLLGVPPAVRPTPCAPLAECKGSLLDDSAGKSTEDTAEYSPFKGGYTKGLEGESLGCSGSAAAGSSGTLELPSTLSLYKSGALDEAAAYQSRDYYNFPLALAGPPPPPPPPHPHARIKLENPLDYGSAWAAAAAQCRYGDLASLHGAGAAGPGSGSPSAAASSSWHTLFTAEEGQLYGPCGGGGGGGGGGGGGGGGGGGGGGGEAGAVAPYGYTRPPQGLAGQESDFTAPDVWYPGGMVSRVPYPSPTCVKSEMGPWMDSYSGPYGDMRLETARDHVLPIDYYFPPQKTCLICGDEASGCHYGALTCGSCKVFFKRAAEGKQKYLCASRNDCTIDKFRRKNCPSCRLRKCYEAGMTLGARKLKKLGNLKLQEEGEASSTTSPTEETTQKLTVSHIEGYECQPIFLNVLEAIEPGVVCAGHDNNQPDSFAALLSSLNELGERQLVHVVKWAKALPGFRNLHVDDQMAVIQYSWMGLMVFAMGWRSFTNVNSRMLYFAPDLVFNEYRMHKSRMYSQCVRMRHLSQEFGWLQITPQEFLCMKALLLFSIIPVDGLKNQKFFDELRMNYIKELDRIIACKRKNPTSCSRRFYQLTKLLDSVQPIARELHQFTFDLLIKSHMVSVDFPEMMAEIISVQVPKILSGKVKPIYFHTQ
T1 sequence (P10275 with tags, fused parts or gaps limits assumed): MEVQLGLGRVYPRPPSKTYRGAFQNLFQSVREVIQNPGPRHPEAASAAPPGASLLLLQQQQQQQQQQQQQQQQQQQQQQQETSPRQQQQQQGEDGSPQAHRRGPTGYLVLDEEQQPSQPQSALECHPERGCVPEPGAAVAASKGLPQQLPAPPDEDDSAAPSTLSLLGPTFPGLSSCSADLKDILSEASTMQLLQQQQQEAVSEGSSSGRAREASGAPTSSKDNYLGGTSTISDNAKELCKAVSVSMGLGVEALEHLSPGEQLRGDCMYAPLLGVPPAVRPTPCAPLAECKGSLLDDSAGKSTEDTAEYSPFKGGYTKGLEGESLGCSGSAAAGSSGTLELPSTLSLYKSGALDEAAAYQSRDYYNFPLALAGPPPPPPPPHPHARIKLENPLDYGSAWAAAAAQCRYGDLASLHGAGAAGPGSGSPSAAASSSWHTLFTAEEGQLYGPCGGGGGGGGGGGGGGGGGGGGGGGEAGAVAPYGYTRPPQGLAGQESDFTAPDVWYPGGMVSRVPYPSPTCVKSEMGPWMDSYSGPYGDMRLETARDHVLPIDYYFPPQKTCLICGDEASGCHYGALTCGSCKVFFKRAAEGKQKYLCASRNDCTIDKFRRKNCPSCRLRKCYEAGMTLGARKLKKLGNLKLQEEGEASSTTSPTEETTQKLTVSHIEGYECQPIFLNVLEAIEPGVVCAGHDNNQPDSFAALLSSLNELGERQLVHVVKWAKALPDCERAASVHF

ERα = ERα (Homo sapiens, UniProt P03372); assay: ER transcriptional activity, ERE luciferase reporter; assay type: cell-based; details: estradiol induced
ERα, sequence (P03372 whole entry, the tested form may be a part): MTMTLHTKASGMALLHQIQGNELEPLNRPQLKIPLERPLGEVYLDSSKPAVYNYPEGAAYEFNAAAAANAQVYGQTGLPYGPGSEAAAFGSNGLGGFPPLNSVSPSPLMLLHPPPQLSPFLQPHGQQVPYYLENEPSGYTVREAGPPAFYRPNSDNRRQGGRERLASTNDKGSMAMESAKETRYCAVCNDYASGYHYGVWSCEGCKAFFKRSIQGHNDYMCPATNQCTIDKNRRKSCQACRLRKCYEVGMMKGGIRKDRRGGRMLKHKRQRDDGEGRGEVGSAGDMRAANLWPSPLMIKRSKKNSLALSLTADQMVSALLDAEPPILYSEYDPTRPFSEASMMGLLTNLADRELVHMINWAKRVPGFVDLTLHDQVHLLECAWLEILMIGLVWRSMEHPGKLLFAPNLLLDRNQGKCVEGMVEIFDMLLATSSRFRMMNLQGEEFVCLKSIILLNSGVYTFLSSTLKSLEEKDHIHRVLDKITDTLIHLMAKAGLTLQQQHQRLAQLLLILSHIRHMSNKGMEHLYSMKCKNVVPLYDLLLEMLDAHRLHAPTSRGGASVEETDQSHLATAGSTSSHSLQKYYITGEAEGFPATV

PR LBD = biological target: T2, PR LBD (Homo sapiens, UniProt P06401); assay: Fluorescence polarization competition binding, PR LBD
T2 sequence (P06401 679-913 limits assumed): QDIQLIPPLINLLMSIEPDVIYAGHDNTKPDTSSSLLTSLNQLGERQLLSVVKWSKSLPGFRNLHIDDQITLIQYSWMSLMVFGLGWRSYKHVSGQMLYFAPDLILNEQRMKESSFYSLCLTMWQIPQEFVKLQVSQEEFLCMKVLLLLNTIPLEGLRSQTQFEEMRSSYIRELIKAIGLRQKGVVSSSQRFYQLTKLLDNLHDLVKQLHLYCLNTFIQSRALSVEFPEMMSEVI

GR = biological target: T3, GR (Homo sapiens, UniProt P04150); assay: GR transcriptional activity, GRE luciferase reporter; assay type: cell-based; details: dexamethasone induced
T3 sequence (P04150 1-777): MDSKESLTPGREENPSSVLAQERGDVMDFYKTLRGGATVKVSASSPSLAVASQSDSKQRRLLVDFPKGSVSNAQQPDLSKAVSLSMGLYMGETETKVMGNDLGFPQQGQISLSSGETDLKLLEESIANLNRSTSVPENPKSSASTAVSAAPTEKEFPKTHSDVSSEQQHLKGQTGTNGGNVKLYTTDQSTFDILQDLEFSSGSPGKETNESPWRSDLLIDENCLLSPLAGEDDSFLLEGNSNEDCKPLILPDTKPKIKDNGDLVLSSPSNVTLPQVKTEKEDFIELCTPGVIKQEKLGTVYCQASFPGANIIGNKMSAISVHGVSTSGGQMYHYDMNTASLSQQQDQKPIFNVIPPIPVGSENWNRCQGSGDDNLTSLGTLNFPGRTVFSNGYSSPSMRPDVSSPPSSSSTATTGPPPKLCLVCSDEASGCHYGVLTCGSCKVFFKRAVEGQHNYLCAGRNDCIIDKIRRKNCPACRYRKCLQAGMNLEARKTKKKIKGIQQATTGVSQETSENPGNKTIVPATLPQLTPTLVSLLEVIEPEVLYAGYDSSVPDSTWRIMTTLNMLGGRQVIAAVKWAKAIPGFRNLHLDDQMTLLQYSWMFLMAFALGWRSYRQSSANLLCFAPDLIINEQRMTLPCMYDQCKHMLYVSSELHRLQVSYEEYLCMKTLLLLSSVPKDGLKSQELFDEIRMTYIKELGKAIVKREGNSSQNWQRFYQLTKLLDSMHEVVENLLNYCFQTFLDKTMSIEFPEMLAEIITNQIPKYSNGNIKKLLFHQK

LNCaP95 cells [2] = assay: LNCaP95 proliferation, BrdU incorporation; assay type: cell-based, human; details: I-EPI-002 2 μM, EPI-002 25 μM, enzalutamide 5 μM; 2 days
LNCaP95 cells [3] = assay: Cell cycle analysis of LNCaP95 cells; assay type: cell-based, human; details: I-EPI-002 5 μM, EPI-002 25 μM, 48 hours
DU145 cells = assay: DU145 proliferation/viability; assay type: cell-based, human; details: up to 10 times the IC50 required to reduce AR-dependent proliferation; 3 days

15-IodoEPI002 [I-EPI-002]
inhibition of probasin luciferase activity, full-length AR with V567es [1]: showed good inhibition | inhibition of ER transcriptional activity (ERα): did not inhibit | competition for ligand binding to PR LBD (PR LBD): did not prevent ligand-binding | inhibition of GR transcriptional activity (GR): did not inhibit | effect on proliferation of LNCaP95 cells (LNCaP95 cells [2]): decreased proliferation | decrease of S phase cells (LNCaP95 cells [3]): ≥ 2 fold | effect on proliferation or viability of DU145 cells (DU145 cells): no effect
